In patent US20250368667A1, “USP1 INHIBITOR” (Shanghai Qilu Pharmaceutical Research and Development …, priority 2022, published 2025):

The compounds below were run against recombinant human His6-USP1/His6-UAF1 composite protein (Homo sapiens (Human), UniProt O94782) (assay: USP1 enzyme activity detection (Ub-Rho fluorescence)). Details: USP1/UAF1, Ub-Rho substrate 300 nM, 1 hour pre-incubation; read-out: IC50 (enzymatic inhibition of USP1).
Format: biochemical
Description: USPli compounds were screened by USP1 enzyme activity detection experiment.
1.1 Experimental materials: recombinant human His6-USP1/His6-UAF1 composite protein. (R&D, catalog number E-568-050): Ubiquitin rhodamine 110 (Ub-Rho) (R&D, catalog number U-555-050); Fluorescent 384-well plate (Perkin Elmer, Art. No. 6007279).
1.2 Test sample: Compounds of table 3 in this application, whose structural formulae and preparation methods are shown in the above examples.
Using Equation (I) to fit data in Excel to obtain the inhibition value;
[formula] • wherein, the maximum signal value represents the luminous signal intensity of the positive control hole without adding the compound of the application; the minimum signal value represents the luminous signal intensity of the negative control hole without enzyme; and the target signal value represents the luminous signal intensity of the Test samples; and • fitting the data in XL-Fit with Equation (II) to obtain IC50 value:
[formula] • wherein Y is the inhibition rate, X is the concentration of the compound; Bottom is the lowest inhibition rate; Top is the highest inhibition rate; and HillSlope is the slope.

recombinant human His6-USP1/His6-UAF1 composite protein, sequence (O94782 whole entry): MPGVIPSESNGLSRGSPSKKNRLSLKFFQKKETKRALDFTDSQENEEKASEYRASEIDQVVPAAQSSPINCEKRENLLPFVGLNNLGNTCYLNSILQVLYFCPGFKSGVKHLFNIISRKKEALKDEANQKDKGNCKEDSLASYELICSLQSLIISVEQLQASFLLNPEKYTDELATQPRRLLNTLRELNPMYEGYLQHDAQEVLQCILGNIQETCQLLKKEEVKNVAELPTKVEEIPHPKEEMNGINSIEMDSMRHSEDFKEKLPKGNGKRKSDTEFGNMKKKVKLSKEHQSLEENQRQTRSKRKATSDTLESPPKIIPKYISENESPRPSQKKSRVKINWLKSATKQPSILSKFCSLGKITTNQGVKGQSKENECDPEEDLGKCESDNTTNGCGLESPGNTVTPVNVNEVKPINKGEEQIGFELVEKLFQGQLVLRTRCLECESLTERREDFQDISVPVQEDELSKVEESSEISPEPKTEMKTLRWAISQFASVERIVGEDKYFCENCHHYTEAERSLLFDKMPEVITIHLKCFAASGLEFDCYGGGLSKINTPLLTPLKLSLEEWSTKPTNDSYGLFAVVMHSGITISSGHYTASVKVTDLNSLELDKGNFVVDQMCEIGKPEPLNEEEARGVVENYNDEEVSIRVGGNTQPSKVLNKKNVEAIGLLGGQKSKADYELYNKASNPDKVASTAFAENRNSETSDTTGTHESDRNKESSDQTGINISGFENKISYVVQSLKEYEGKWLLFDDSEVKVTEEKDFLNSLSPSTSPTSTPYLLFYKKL
recombinant human His6-USP1/His6-UAF1 composite protein, sequence (Q8TAF3 whole entry partner): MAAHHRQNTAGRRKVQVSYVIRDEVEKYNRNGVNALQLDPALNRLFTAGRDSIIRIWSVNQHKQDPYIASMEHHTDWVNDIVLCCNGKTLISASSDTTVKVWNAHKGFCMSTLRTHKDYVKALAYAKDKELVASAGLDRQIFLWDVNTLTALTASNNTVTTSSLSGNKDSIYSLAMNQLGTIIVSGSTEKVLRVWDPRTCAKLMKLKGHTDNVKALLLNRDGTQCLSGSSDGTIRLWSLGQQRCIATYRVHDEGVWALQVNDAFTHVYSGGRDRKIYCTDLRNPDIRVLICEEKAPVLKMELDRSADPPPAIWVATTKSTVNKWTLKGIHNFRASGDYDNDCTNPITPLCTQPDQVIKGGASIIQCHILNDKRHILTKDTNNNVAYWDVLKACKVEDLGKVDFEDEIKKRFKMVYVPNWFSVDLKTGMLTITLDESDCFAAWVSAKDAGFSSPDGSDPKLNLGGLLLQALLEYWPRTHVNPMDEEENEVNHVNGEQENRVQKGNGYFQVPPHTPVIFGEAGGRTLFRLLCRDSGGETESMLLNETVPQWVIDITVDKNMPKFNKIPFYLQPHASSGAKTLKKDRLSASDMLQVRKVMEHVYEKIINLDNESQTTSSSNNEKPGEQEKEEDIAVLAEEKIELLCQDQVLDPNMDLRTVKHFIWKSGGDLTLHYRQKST

Question: How did the IC50 turn out when COc1ncnc(C2CC2)c1-c1ncc2c3ccncc3n(Cc3ccc(-c4nc(C(F)(F)F)cn4C)cc3)c2n1 [Compound 55] was run?
Answer: 7.9 nM

Question: With COc1ncnc(C2CC2)c1-c1ncc2c3ccc(C(F)(F)F)cc3n(Cc3ccc(-c4nc(C(F)(F)F)cn4C)cc3)c2n1 [Compound 41] as the compound, how does the IC50 read?
Answer: 35.2 nM

Question: For COc1ncnc(C2CC2)c1-c1ncc2c3sncc3n(Cc3ccc(-c4nc(C(F)(F)F)cn4C)cc3)c2n1 [Compound 60], which IC50 is on record?
Answer: 5.34 nM

Question: COc1ncnc(C2CC2)c1-c1ncc2c3ccc(N(C(C)C)S(C)(=O)=O)cc3n(Cc3ccc4c(c3)CCCn3cc(C(F)(F)F)nc3-4)c2n1 [Compound 99] was tested. Which IC50 did it give?
Answer: 3.13 nM

Question: Which IC50 does the source give for COc1ncnc(C2CC2)c1-c1ncc2c3ccc(C#N)cc3n(Cc3ccc(-c4nc(C(F)(F)F)cn4C(C)C)cc3)c2n1 [Compound 51] here?
Answer: 5.9 nM

Question: With COc1ncnc(C2CC2)c1-c1ncc2c3cn(C)nc3n(Cc3cc(F)c(-c4nc(C(F)(F)F)cn4C)c(F)c3)c2n1 [Compound 115] as the compound, how does the IC50 read?
Answer: 3.03 nM

Question: Which IC50 does the source give for COc1ncnc(C2CC2)c1-c1ncc2c3cn(C)nc3n(Cc3ccc(-c4nc(C(F)(F)F)cn4C)c(F)c3)c2n1 [Compound 118] here?
Answer: 3.57 nM

Question: For [2H]C([2H])([2H])n1cc2c3cnc(-c4c(OC)ncnc4C4CC4)nc3n(Cc3ccc(-c4nc(C(F)(F)F)cn4C(C)C)cc3)c2n1 [Compound 110], which IC50 is on record?
Answer: 9.5 nM

Question: For COc1ncnc(C2CC2)c1-c1ncc2c3cc(C(F)(F)F)ccc3n(Cc3ccc(-c4nc(C(F)(F)F)cn4C(C)C)cc3)c2n1 [Compound 22], which IC50 is on record?
Answer: 135 nM

Question: With COc1ncnc(C2CC2)c1-c1ncc2c3ccncc3n(Cc3ccc4c(c3)CCCn3cc(C(F)(F)F)nc3-4)c2n1 [Compound 61] as the compound, how does the IC50 read?
Answer: 3.14 nM

Question: With CCn1cc(C(F)(F)F)nc1-c1ccc(Cn2c3cc(C#N)ccc3c3cnc(-c4c(OC)ncnc4C4CC4)nc32)cc1 [Compound 50] as the compound, how does the IC50 read?
Answer: 4.84 nM

Question: How did the IC50 turn out when COc1ncnc(C2CC2)c1-c1ncc2c3ccc(C#N)cc3n(Cc3ccc(-c4nc(C(F)(F)F)c(C5CC5)n4C)cc3)c2n1 [Compound 164] was run?
Answer: 12 nM

Question: How did the IC50 turn out when COc1ncnc(C2CC2)c1-c1ncc2c3cn(C)nc3n(Cc3ccc(-c4nc(C(F)(F)F)cn4C(C)C)c(F)c3)c2n1 [Compound 107] was run?
Answer: 4.65 nM

Question: Which IC50 does the source give for COc1ncnc(C2CC2)c1-c1ncc2c3ccc(N4CC(O)C4)nc3n(Cc3ccc4c(c3)CCCn3cc(C(F)(F)F)nc3-4)c2n1 [Compound 136] here?
Answer: 1.34 nM

Question: For COc1ncnc(C2CC2)c1-c1ncc2c3ccc(C(F)F)cc3n(Cc3ccc(-c4nc(C(F)(F)F)cn4C)cc3)c2n1 [Compound 40], which IC50 is on record?
Answer: 15.1 nM

Question: Which IC50 does the source give for COc1ncnc(C2CC2)c1-c1ncc2c3cccc(C#N)c3n(Cc3ccc(-c4nc(C(F)(F)F)cn4C)cc3)c2n1 [Compound 26] here?
Answer: 11.5 nM

Question: With COc1ncnc(C2CC2)c1-c1ncc2c3cc(F)cnc3n(Cc3ccc4c(c3)CCCn3cc(C(F)(F)F)nc3-4)c2n1 [Compound 146] as the compound, how does the IC50 read?
Answer: 11.6 nM

Question: How did the IC50 turn out when COc1ncnc(C2CC2)c1-c1ncc2c3cn[nH]c3n(Cc3ccc(C4NC(C(F)(F)F)=CN4C(C)C)cc3)c2n1 (centres unmarked) [Compound 89] was run?
Answer: 4.7 nM

Question: COc1ncnc(C2CC2)c1-c1ncc2c3ccncc3n(Cc3ccc(-c4nc(C(F)(F)F)cn4C(C)C)cc3)c2n1 [Compound 29] was tested. Which IC50 did it give?
Answer: 4.62 nM

Question: With COc1ncnc(C2CC2)c1-c1ncc2c3ccc(N4CC(OC)C4)nc3n(Cc3ccc4c(c3)CCCn3cc(C(F)(F)F)nc3-4)c2n1 [Compound 137] as the compound, how does the IC50 read?
Answer: 1.54 nM

Question: With COc1ncnc(C2CC2)c1-c1ncc2c3cn(C)nc3n(Cc3ccc(-c4nc(C(F)(F)F)cs4)cc3)c2n1 [Compound 166] as the compound, how does the IC50 read?
Answer: 10.2 nM

Question: How did the IC50 turn out when COc1ncnc(C2CC2)c1-c1ncc2c3ccncc3n(Cc3ccc4c(c3)CCn3cc(C(F)(F)F)nc3-4)c2n1 [Compound 65] was run?
Answer: 59.6 nM

Question: With COc1ncnc(C2CC2)c1-c1ncc2c3ccccc3n(Cc3ccc(-n4nc(C)cc4C(F)(F)F)cc3)c2n1 [Compound 24] as the compound, how does the IC50 read?
Answer: 35.5 nM

Question: Which IC50 does the source give for COc1ncnc(C2CC2)c1-c1ncc2c3ccncc3n(Cc3ccc4c(c3)OCCn3cc(C(F)(F)F)nc3-4)c2n1 [Compound 76] here?
Answer: 25.3 nM

Question: For COc1ncnc(C2CC2)c1-c1ncc2c3ccc(F)nc3n(Cc3ccc(-c4nc(C(F)(F)F)cn4C)cc3)c2n1 [Compound 73], which IC50 is on record?
Answer: 4.9 nM

Question: How did the IC50 turn out when COc1ncnc(C2CC2)c1-c1ncc2c3cn(C)nc3n(Cc3cc(F)c(-c4nc(C(F)(F)F)c5n4CCC5)c(F)c3)c2n1 [Compound 144] was run?
Answer: 3.17 nM

Question: For COc1ncnc(C2CC2)c1-c1ncc2c3cc(F)ccc3n(Cc3ccc(-c4nc(C(F)(F)F)cn4C(C)C)cc3)c2n1 [Compound 15], which IC50 is on record?
Answer: 12.2 nM

Question: With COc1ncnc(C2CC2)c1-c1ncc2c3ncccc3n(Cc3ccc(-c4nc(C(F)(F)F)cn4C(C)C)cc3)c2n1 [Compound 3, 2-(4-cyclopropyl-6-methoxypyrimidin-5-yl)-9-(4-(1-isopropyl-4-(trifluoromethyl)-1H-imidazo 1-2-yl)benzyl)-9H-pyridino[2′,3′: 4,5]pyrrolo[2,3-d]pyrimidine] as the compound, how does the IC50 read?
Answer: 5.55 nM

Question: COc1ncnc(C2CC2)c1-c1ncc2c3cccc(F)c3n(Cc3ccc(-c4nc(C(F)(F)F)cn4C(C)C)cc3)c2n1 [Compound 6, 2-(4-cyclopropyl-6-methoxypyrimidin-5-yl)-8-fluoro-9-(4-(1-isopropyl-4-(trifluoromethyl)-1H-imidazol-2-yl)benzyl)-9H-pyrimido[4,5-b]indole] was tested. Which IC50 did it give?
Answer: 6.07 nM

Question: How did the IC50 turn out when COc1ncnc(C2CC2)c1-c1ncc2c3cn(C)nc3n(Cc3ccc(-c4nc(C(F)(F)F)c5n4CCOC5)cc3)c2n1 [Compound 139] was run?
Answer: 23.5 nM

Question: For CC(C)c1ccccc1-c1ncc2c3ccncc3n(Cc3ccc(-c4nc(C(F)(F)F)cn4C)cc3)c2n1 [Compound 79], which IC50 is on record?
Answer: 2.04 nM

Question: For COc1ncnc(C2CC2)c1-c1ncc2c3ccccc3n(Cc3ccc(-c4nc(C(F)(F)F)cn4C(C)C)nc3)c2n1 [Compound 16], which IC50 is on record?
Answer: 7.55 nM

Question: COc1ncnc(C2CC2)c1-c1ncc2c3ccc(C(C)(C)O)cc3n(Cc3ccc(-c4nc(C(F)(F)F)cn4C)cc3)c2n1 [Compound 38] was tested. Which IC50 did it give?
Answer: 12.1 nM

Question: CCC(c1ccc(-c2nc(C(F)(F)F)cn2C(C)C)cc1)n1c2ccccc2c2cnc(-c3c(OC)ncnc3C3CC3)nc21 (centres unmarked) [Compound 23] was tested. Which IC50 did it give?
Answer: 11.7 nM

Question: COc1ncnc(C2CC2)c1-c1ncc2c3ccccc3n(Cc3ccc(-n4nc(C(F)(F)F)cc4C)cc3)c2n1 [Compound 17] was tested. Which IC50 did it give?
Answer: 9.28 nM

Question: COC(=O)c1ccc2c3cnc(-c4c(OC)ncnc4C4CC4)nc3n(Cc3ccc(-c4nc(C(F)(F)F)cn4C)cc3)c2c1 [Compound 42] was tested. Which IC50 did it give?
Answer: 30.4 nM

Question: Which IC50 does the source give for COc1ncnc(C2CC2)c1-c1ncc2c3cn(C)nc3n(Cc3ccc(-c4nc(C(F)(F)F)c5n4CCC5)c(F)c3)c2n1 [Compound 143] here?
Answer: 4.67 nM

Question: Which IC50 does the source give for COc1ncnc(C2CC2)c1-c1ncc2c3cccnc3n(Cc3ccc4c(c3)Cn3cc(C(F)(F)F)nc3-4)c2n1 [Compound 72] here?
Answer: 42.9 nM

Question: With COc1ncnc(C2CC2)c1-c1ncc2c3cn(C)nc3n(Cc3ccc(-c4nc(C(F)(F)F)c5n4CCC5)cc3)c2n1 [Compound 114] as the compound, how does the IC50 read?
Answer: 1.89 nM

Question: How did the IC50 turn out when COc1ncnc(C2CC2)c1-c1ncc2c3cccc(F)c3n(Cc3ccc(-n4nc(C(F)(F)F)cc4C)cc3)c2n1 [Compound 49] was run?
Answer: 21.2 nM

Question: For COc1ncnc(C2CC2)c1-c1ncc2c3ccc(S(N)(=O)=O)cc3n(Cc3ccc(-c4nc(C(F)(F)F)cn4C)cc3)c2n1 [Compound 30], which IC50 is on record?
Answer: 5.71 nM

Question: CCn1cc(C(F)(F)F)nc1-c1ccc(Cn2c3cc(C(F)(F)F)ccc3c3cnc(-c4c(OC)ncnc4C4CC4)nc32)cc1 [Compound 45] was tested. Which IC50 did it give?
Answer: 4.4 nM

Question: How did the IC50 turn out when COc1ncnc(C2CC2)c1-c1ncc2c3cn(C)nc3n(Cc3ccc(-c4nc(C(F)(F)F)cn4C)cc3)c2n1 [Compound 108] was run?
Answer: 7.52 nM

Question: COc1ncnc(C2CC2)c1-c1ncc2c3ccc(C)nc3n(Cc3ccc4c(c3)CCCn3cc(C(F)(F)F)nc3-4)c2n1 [Compound 128] was tested. Which IC50 did it give?
Answer: 4.8 nM

Question: How did the IC50 turn out when COc1ncnc(C2CC2)c1-c1ncc2c3cn(C)nc3n(Cc3ccc4c(c3)C3C(Cn5cc(C(F)(F)F)nc5-4)C3(F)F)c2n1 (centres unmarked) [Compound 133] was run?
Answer: 22 nM

Question: For COc1ncnc(C2CC2)c1-c1ncc2c3ccc(N(C)S(C)(=O)=O)cc3n(Cc3ccc(-c4nc(C(F)(F)F)cn4C)cc3)c2n1 [Compound 82], which IC50 is on record?
Answer: 4.45 nM

Question: How did the IC50 turn out when COc1ncnc(C2CC2)c1-c1ncc2c3ccnc(F)c3n(Cc3ccc(-c4nc(C(F)(F)F)cn4C)cc3)c2n1 [Compound 116] was run?
Answer: 6.48 nM

Question: Which IC50 does the source give for COc1ncnc(C2CC2)c1-c1ncc2c3cccnc3n(Cc3ccc4c(c3)CCCn3cc(C(F)(F)F)nc3-4)c2n1 [Compound 63] here?
Answer: 2.74 nM

Question: For COc1ncnc(C2CC2)c1-c1ncc2c3ccc(C(N)=O)cc3n(Cc3ccc(-c4nc(C(F)(F)F)cn4C)cc3)c2n1 [Compound 28], which IC50 is on record?
Answer: 5.95 nM

Question: How did the IC50 turn out when COc1ncnc(C2CC2)c1-c1ncc2c3ccc(P4(=O)CCCC4)cc3n(Cc3ccc(-c4nc(C(F)(F)F)cn4C(C)C)cc3)c2n1 [Compound 109] was run?
Answer: 11.9 nM

Question: For COc1ccc2c3cnc(-c4c(OC)ncnc4C4CC4)nc3n(Cc3ccc(-c4nc(C(F)(F)F)cn4C(C)C)cc3)c2c1 [Compound 7, 2-(4-cyclopropyl-6-methoxypyrimidin-5-yl)-9-(4-(1-isopropyl-4-(trifluoromethyl)-1H-imidazo 1-2-yl)benzyl)-7-methoxy-9H-pyrimido[4,5-b]indole], which IC50 is on record?
Answer: 5.81 nM

Question: For COc1ncnc(C2CC2)c1-c1ncc2c3ccncc3n(Cc3ccc4c(c3)Cn3cc(C(F)(F)F)nc3-4)c2n1 [Compound 71], which IC50 is on record?
Answer: 108 nM

Question: Which IC50 does the source give for COc1ncnc(C2CC2)c1-c1ncc2c3cccc(OC)c3n(Cc3ccc(-c4nc(C(F)(F)F)cn4C(C)C)cc3)c2n1 [Compound 46] here?
Answer: 3.6 nM

Question: Which IC50 does the source give for COc1ncnc(C2CC2)c1-c1ncc2c3ccc(CS(C)(=O)=O)cc3n(Cc3ccc4c(c3)CCCn3cc(C(F)(F)F)nc3-4)c2n1 [Compound 83] here?
Answer: 4.62 nM

Question: With COc1cnn(C2CCC2)c1-c1ncc2c3ccncc3n(Cc3ccc(-c4nc(C(F)(F)F)cn4C)cc3)c2n1 [Compound 81] as the compound, how does the IC50 read?
Answer: 7.15 nM

Question: CCn1cc(C(F)(F)F)nc1-c1ccc(Cn2c3nc(-c4c(OC)ncnc4C4CC4)ncc3c3cccc(F)c32)cc1 [Compound 35] was tested. Which IC50 did it give?
Answer: 9.82 nM

Question: With COc1ncnc(C2CC2)c1-c1ncc2c3cc(C(C)(C)O)ccc3n(Cc3ccc(-c4nc(C(F)(F)F)cn4C)cc3)c2n1 [Compound 34] as the compound, how does the IC50 read?
Answer: 62 nM

Question: Which IC50 does the source give for COc1ncnc(C2CC2)c1-c1ncc2c3cc(C#N)ccc3n(Cc3ccc(-c4nc(C(F)(F)F)cn4C(C)C)cc3)c2n1 [Compound 12] here?
Answer: 58.3 nM

Question: COc1ncnc(C2CC2)c1-c1ncc2c3cnccc3n(Cc3ccc(-c4nc(C(F)(F)F)cn4C)cc3)c2n1 [Compound 57] was tested. Which IC50 did it give?
Answer: 14.8 nM
